The results in this text go back to the PolyMetriX glass transition set.

Regarding `*CCCCCCCCCCCCN1C(=O)c2cccc3c(-c4ccc5c6c(cccc46)C(=O)N(CCCCCCCCCCCCN4C(=O)c6ccc7c8ccc9c%10c(ccc(c%11ccc(c6c7%11)C4=O)c%108)C(=O)N(*)C9=O)C5=O)ccc(c23)C1=O` (repeat unit), the glass transition temperature was determined as 210.00 °C.

Consider `*CCCCCCCCCCCCc1nc2ccc(-c3ccc4nc(*)oc4c3)cc2o1` (repeat unit), for which the glass transition temperature came out at 55.00 °C.

The compound `*CCCCCCn1ccc(-c2cccc(-c3ccn(*)n3)c2)n1` (repeat unit) displayed a glass transition temperature of 70.00 °C.

Compound `*c1cc(CCCCCC)c(-c2ccc3c4ccc(-c5sc(-c6sc(*)c7nc(CC)c(CC)nc67)cc5CCCCCC)cc4n(CCCCCCCCCCCC)c3c2)s1` (repeat unit) returned a glass transition temperature of 89.00 °C.

In turn, `*c1ccc(-c2ccc(-c3cc(-c4ccc(-c5ccc(Oc6ccccc6)cc5)cc4)c4cc(-c5ccc6nc(*)cc(-c7ccc(-c8ccc(Oc9ccccc9)cc8)cc7)c6c5)ccc4n3)cc2)cc1` (repeat unit) registered a glass transition temperature of 374.00 °C.

Turning to `*c1ccc(-c2ccc(-c3nc4ccc(-c5ccc6nc(*)c(-c7ccccc7)nc6c5)cc4nc3-c3ccccc3)cc2)cc1` (repeat unit), the glass transition temperature is 404.00 °C.

`*c1ccc(-c2cnc3ccc(S(=O)(=O)c4ccc5ncc(*)nc5c4)cc3n2)cc1` (repeat unit): the glass transition temperature amounted to 342.00 °C.

`*c1ccc(-c2nc(-c3cccc(-c4nnc(-c5ccccc5)c(*)n4)n3)nnc2-c2ccccc2)cc1` (repeat unit): the glass transition temperature came out at 260.00 °C.

The compound `*c1ccc(-c2nc3ccc(-c4ccc5nc(*)c(-c6ccccc6)nc5c4)cc3nc2-c2ccccc2)cc1` (repeat unit) returned a glass transition temperature of 354.50 °C.

Consider `*c1ccc(Cc2ccc(-n3nccc3-c3cccc(-c4ccnn4*)c3)cc2)cc1` (repeat unit), for which the glass transition temperature worked out at 212.00 °C.

Compound `*c1ccc(Cc2cccc(-n3c(=O)c4cc5c(=O)n(*)c(=O)c5cc4c3=O)c2)cc1` (repeat unit) had a glass transition temperature of 339.00 °C.

On to `*c1ccc(Oc2ccc(-c3cnnc(-c4cccc(-c5ncc(*)nn5)n4)n3)cc2)cc1` (repeat unit), for which the glass transition temperature came out at 223.00 °C.

`*c1ccc(Oc2ccc(-c3nc4cc(-c5ccc6nc(*)c(-c7ccccc7)nc6c5)ccc4nc3-c3ccccc3)cc2)cc1` (repeat unit) had a glass transition temperature of 292.50 °C.

For the compound `*c1ccc(Oc2ccc(-c3nc4cc(-c5ccc6nc(-c7ccccc7)c(*)nc6c5)ccc4nc3-c3ccccc3)cc2)cc1` (repeat unit), the glass transition temperature worked out at 300.00 °C.

With `*c1ccc(Oc2ccc(-c3nc4ccc(-c5ccc6nc(*)c(-c7ccccc7)nc6c5)cc4nc3-c3ccccc3)cc2)cc1` (repeat unit), the glass transition temperature was 306.00 °C.

In the case of `*c1ccc(Oc2ccc(Oc3ccc(Oc4ccc(-c5nc6ccc(-c7ccc8nc(*)c(-c9ccccc9)nc8c7)cc6nc5-c5ccccc5)cc4)cc3)cc2)cc1` (repeat unit), the glass transition temperature was found to be 263.00 °C.

The compound `*c1ccc2c(c1)C(=O)N(c1cccc(N3C(=O)c4ccc(C(*)(C(F)(F)F)C(F)(F)F)cc4C3=O)c1C)C2=O` (repeat unit) showed a glass transition temperature of 353.50 °C.

The compound `*c1ccc2c(c1)Sc1cc(-c3sc4cc(*)sc4c3CCCCC)ccc1N2CCCCCCCCCC` (repeat unit) gave a glass transition temperature of 131.00 °C.

With `*c1ccc2c(c1)Sc1cc(-c3sc4cc(*)sc4c3CCCCC)ccc1N2CCCCCCCCCCCC` (repeat unit), the glass transition temperature turned out to be 136.00 °C.

Compound `*c1ccc2cc(-c3nc4ccc(-c5ccc6nc(*)[nH]c6c5)cc4[nH]3)ccc2c1` (repeat unit) showed a glass transition temperature of 403.00 °C.

Regarding `*c1ccc2cc3cc(-c4sc(-c5cc(CCCCCCCCCCCC)c(*)s5)cc4CCCCCCCCCCCC)ccc3cc2c1` (repeat unit), the glass transition temperature stood at 158.00 °C.

As to `*c1ccc2oc(-c3ccc(-c4nc5cc(C(*)(C(F)(F)F)C(F)(F)F)ccc5o4)cn3)nc2c1` (repeat unit), the glass transition temperature was 352.00 °C.

For the compound `*c1ccc2oc(-c3ccc(C(c4ccc(-c5nc6cc(C(*)(c7ccccc7)C(F)(F)F)ccc6o5)cc4)(C(F)(F)F)C(F)(F)F)cc3)nc2c1` (repeat unit), the glass transition temperature was 334.00 °C.

`*c1ccc2oc(-c3ccc(Oc4ccc(-c5nc6cc(C(*)(c7ccccc7)C(F)(F)F)ccc6o5)cc4)cc3)nc2c1` (repeat unit) displayed a glass transition temperature of 299.00 °C.

Turning to `*c1ccc2oc(-c3cccc(-c4nc5cc(C(*)(C(F)(F)F)C(F)(F)F)ccc5o4)c3)nc2c1` (repeat unit), the glass transition temperature was found to be 301.00 °C.

The compound `*c1ccc2oc3ccc(S(*)(=O)=O)cc3c2c1` (repeat unit) showed a glass transition temperature of 360.00 °C.

`*c1cccc(-c2cccc(C(F)(F)C(F)(F)C(*)(F)F)c2)c1` (repeat unit) returned a glass transition temperature of 45.00 °C.

The compound `*c1cccc(-c2nc3cc(-c4ccc5[nH]c(*)nc5c4)ccc3[nH]2)c1` (repeat unit) yielded a glass transition temperature of 410.00 °C.

`*c1cccc(-c2nc3ccc(-c4ccc5nc(*)sc5c4)cc3s2)c1` (repeat unit): the glass transition temperature is 495.00 °C.

In turn, `*c1cccc(-n2c(=O)c3cc4c(=O)n(*)c(=O)c4cc3c2=O)c1` (repeat unit) displayed a glass transition temperature of 430.00 °C.

For `*c1cccc(-n2nc(-c3ccccc3)c3cc(Oc4ccc5c(-c6ccccc6)nn(*)c(=O)c5c4)ccc3c2=O)c1C#N` (repeat unit), the glass transition temperature turned out to be 301.00 °C.

Turning to `*c1cccc(C(=O)c2c(C)cc(C)c(N3C(=O)c4ccc(Oc5ccc6c(c5)C(=O)N(*)C6=O)cc4C3=O)c2C)c1` (repeat unit), the glass transition temperature turned out to be 287.00 °C.

The compound `*c1cccc(N2C(=O)C(=O)N(c3ccc(Cc4ccc(N5C(=O)C(=O)N(*)C5=O)cc4)cc3)C2=O)n1` (repeat unit) gave a glass transition temperature of 237.00 °C.

With `*c1cccc(Oc2cccc(Oc3cccc(-n4c(=O)c5cc6c(=O)n(*)c(=O)c6cc5c4=O)c3)c2)c1` (repeat unit), the glass transition temperature stood at 221.00 °C.

`*c1cccc(P(=O)(c2cccc(-n3c(=O)c4cc5c(=O)n(*)c(=O)c5c(-c5ccc(C(F)(F)F)cc5)c4c3=O)c2)c2cc(C(F)(F)F)cc(C(F)(F)F)c2)c1` (repeat unit) displayed a glass transition temperature of 292.00 °C.

Regarding `*c1cccc(P(=O)(c2ccccc2)c2cccc(-n3c(=O)c4c(-c5ccc(C(F)(F)F)cc5)c5c(=O)n(*)c(=O)c5c(-c5ccc(C(F)(F)F)cc5)c4c3=O)c2)c1` (repeat unit), the glass transition temperature came to 334.00 °C.

In the case of `*c1cccc(P(=O)(c2ccccc2)c2cccc(-n3c(=O)c4cc5c(=O)n(*)c(=O)c5c(-c5cc(C(F)(F)F)cc(C(F)(F)F)c5)c4c3=O)c2)c1` (repeat unit), the glass transition temperature stood at 299.00 °C.

Take `*c1cccc(P(=O)(c2ccccc2)c2cccc(-n3c(=O)c4cc5c(=O)n(*)c(=O)c5c(-c5ccccc5)c4c3=O)c2)c1` (repeat unit): the glass transition temperature was 325.00 °C.

The compound `*c1cccc(P(=O)(c2ccccc2)c2cccc(-n3c(=O)c4cc5c(=O)n(*)c(=O)c5cc4c3=O)c2)c1` (repeat unit) displayed a glass transition temperature of 331.00 °C.

`*c1nc2cc(S(=O)(=O)c3ccc4oc(C5CCC(*)CC5)nc4c3)ccc2o1` (repeat unit) displayed a glass transition temperature of 296.00 °C.
